The values below come from patent US20250082565A1, “ANTIOXIDANT COSMETIC COMPLEX, COSMETIC COMPOSITION, USE AND METHOD FOR COSMETIC TREATMENT” (Natura Cosméticos S.A., priority 2023, published 2025).

Assay [1] can be described thus: Singlet oxygen suppression (emission at 1270 nm). The following applies: Stern-Volmer model; phosphorescence at 1270 nm in ethanol. The procedure: (§1) The excited state suppression ability was assessed by measuring the transient absorption of triplet states using flash photolysis and by singlet oxygen emission in the near infrared.
Singlet oxygen suppression: The detector (PMT Hamamatsu R5509—model PC176TSCE005) was cooled to −80° C. and set to 1500 V and the signals were acquired using a proprietary software from SHB Analytics GmbH (Germany). Excitation was performed by a Quantel Brilliant laser (2 w-3 w-Rainbow). Emission from the sample is filtered so that irradiation in the range of from […] is detected. A microcomputer is connected to the system and analysis of the transients is carried out using an ultra-fast acquisition plate. It is important to remember that luminescence emission at 1270 nm is characteristic of singlet oxygen, being the safest method of detecting the presence and reactivity of this species. […]
To assess the actives' ability of suppressing singlet oxygen (1O2), the near-infrared emission (1270 nm) was measured, which is characteristic of 1O2 and a golden standard for this detection. […]
The detector (PMT Hamamatsu-model H10330-45) was cooled to −80° C. and set to −800 V and the signals were acquired using a proprietary software from SHB Analytics GmbH (Germany). […] Sample emission is detected in the range of 1270±20 nm. […]

Assay [2] in a line: Suppression of triplet species (laser flash photolysis). The following applies: Stern-Volmer model; 10 μM methylene blue, excitation 660 nm, argon purged; individual actives. The procedure:
as §1
Triplet suppression: The SHB Laser Flash Photolysis system was used (FIG. 14). A laser pulse (10 mJ/pulse, 10-20 ns) impinges on the sample providing electronic excitation. To assess the formation and the lifetime of excited states or other reactive intermediates, the change in absorbance prior to and after electronic excitation of the sample is monitored by an optical beam (LED) as a function of time. It monitors the disappearance of the species in the fundamental state or the appearance of the excited or radical species. The laser beam is positioned at 90° to the monitoring beam. Shutters are used in both the excitation and monitoring beams to protect the sample from photolysis. The detector in this technique consists of a combination of filters and diode detector. The diode response is read on a digital oscilloscope (Tektronix 2230), which data is subsequently transferred to the microcomputer. The entire equipment is controlled by a microcomputer and the time resolution of the instrument is of about 50 ns. A Quantel Nd: YAG laser (2 w, 3 w Rainbow, pulsed at 3 ns, 80.1% power) was used. […] Readings were taken in a 2 mm×10 mm quartz cuvette. […]

On to `CC1=C(/C=C/C(C)=C/C=C/C(C)=C/C=C/C=C(C)/C=C/C=C(C)/C=C/C2=C(C)CCCC2(C)C)C(C)(C)CCC1` [Beta-carotene], for which the “KSV (singlet oxygen suppression constant)” value in assay [1] is reported as 30.5 × 10^4 mg^−1mLs^−1. In addition, in assay [2], the “KSt (triplet suppression constant)” value was 0.16 ± 0.05 μg^−1μL.
